Reference: patent US7405240B2, “Substituted cyclopentanes or cyclopentanones as therapeutic agents” (Allergan, Inc., priority 2006, dated 2008)

How the values were obtained:
hEP2 [1] = molecular target: T1, hEP2 (Homo sapiens, UniProt P43116); test: FLIPR calcium signal, hEP2; format: cell-based; parameters: expressed in transfected cells; host or cells: HEK-293(EBNA); details: HEK-293(EBNA) cells expressing hEP2/Gqs5
Experimental: (§1) Methods for FLIPR™ Studies
(§2) HEK-293(EBNA) cells, stably expressing one type or subtype of recombinant human prostaglandin receptors (prostaglandin receptors expressed: hDP/Gqs5; hEP1; hEP2/Gqs5; hEP3A/Gqi5; hEP4/Gqs5; hFP; hIP; hTP), were cultured in 100 mm culture dishes in high-glucose DMEM medium containing 10% fetal bovine serum, 2 mM 1-glutamine, 250 μg/ml geneticin (G418) and 200 μg/ml hygromycin B as selection markers, and 100 units/ml penicillin G, 100 μg/ml streptomycin and 0.25 μg/ml amphotericin B.
(§3) Cells were seeded at a density of 5×10^4 cells per well in Biocoat® Poly-D-lysine-coated black-wall, clear-bottom 96-well plates (Becton-Dickinson) and allowed to attach overnight in an incubator at 37° C. Cells were then washed two times with HBSS-HEPES buffer (Hanks Balanced Salt Solution without bicarbonate and phenol red, 20 mM HEPES, pH 7.4) using a Denley Cellwash plate washer (Labsystems). After 45 minutes of dye-loading in the dark, using the calcium-sensitive dye Fluo-4 AM at a final concentration of 2 μM, plates were washed four times with HBSS-HEPES buffer to remove excess dye leaving 100 μl in each well. Plates were re-equilibrated to 37° C. for a few minutes.
(§4) Cells were excited with an Argon laser at 488 nm, and emission was measured through a 510-570 nm bandwidth emission filter (FLIPR™, Molecular Devices, Sunnyvale, Calif.). Drug solution was added in a 50 μl volume to each well to give the desired final concentration. The peak increase in fluorescence intensity was recorded for each well. On each plate, four wells each served as negative (HBSS-HEPES buffer) and positive controls (standard agonists: BW245C (hDP); PGE2 (hEP1; hEP2/Gqs5; hEP3A/Gqi5; hEP4/Gqs5); PGF2α (hFP); carbacyclin (hIP); U-46619 (hTP), depending on receptor). The peak fluorescence change in each drug-containing well was then expressed relative to the controls.
(§5) Compounds were tested in a high-throughput (HTS) or concentration-response (CoRe) format. In the HTS format, forty-four compounds per plate were examined in duplicates at a concentration of 10^−5 M. To generate concentration-response curves, four compounds per plate were tested in duplicates in a concentration range between 10^−5 and 10^−11 M. The duplicate values were averaged. In either, HTS or CoRe format each compound was tested on at least 3 separate plates using cells from different passages to give an n≧3.

hEP2 [2] = molecular target: T1, hEP2; test: Competition binding, [3H]PGE2, human EP2 receptors; parameters: expressed in transfected cells; host or cells: HEK 293; details: [3H]PGE2, HEK 293 cells stably expressing human EP2; read-out: hEP2 Ki
Experimental: Competition binding experiments were performed in a medium containing Hank's balanced salt solution, Hepes 20 mM, pH 7.3, membranes (˜60 μg protein) or 2×10^5 cells from HEK 293 cells stably expressing human EP2 receptors, [^3H]PGE2 (10 nM) and various concentrations of test compounds in a total volume of 300 μl. Reaction mixtures were incubated at 23° C. for 60 min, and were filtered over Whatman GF/B filters under vacuum. Filters were washed three times with 5 ml ice-cold buffer containing 50 mM Tris/HCl (pH 7.3). Non-specific binding was estimated in the presence of excess unlabeled PGE2 (10 μM). Binding data fitted to the binding model for a single class of binding sites, using nonlinear regression analysis. IC50 values thus obtained were converted to Ki using the equation of Ki=(IC50/(1+[L]/KD) where [L] represents PGE2 concentration (10 nM) and KD the dissociation constant for [^3H]PGE2 at human EP2 receptors (40 nM).
(§6) HEK-293 cells stably expressing the human or feline FP receptor, or EP1, EP2, or EP4 receptors were washed with TME buffer, scraped from the bottom of the flasks, and homogenized for 30 sec using a Brinkman PT 10/35 polytron. TME buffer was added to achieve a final 40 ml volume in the centrifuge tubes (the composition of TME is 100 mM TRIS base, 20 mM MgCl2, […]; 10N HCl is added to achieve a pH of 7.4).
(§7) The cell homogenate was centrifuged at 19000 r.p.m. for 20 min at 4° C. using a Beckman Ti-60 rotor. The resultant pellet was resuspended in TME buffer to give a final 1 mg/ml protein concentration, as determined by Biorad assay. Radioligand binding competition assays vs. [3H-] 17-phenyl PGF2, (5 nM) were performed in a 100 μl volume for 60 min. Binding reactions were started by adding plasma membrane fraction. The reaction was terminated by the addition of 4 ml ice-cold TRIS-HCl buffer and rapid filtration through glass fiber GF/B filters using a Brandel cell harvester. The filters were washed 3 times with ice-cold buffer and oven dried for one hour.
(§8) [^3H-] PGE2 (specific activity 180 Ci mmol) was used as the radioligand for EP receptors. [^3H] 17-phenyl PGF2, was employed for FP receptor binding studies. Binding studies employing EP1, EP2, EP4 and FP receptors were performed in duplicate in at least three separate experiments. A […] assay volume was used. Incubations were for 60 min at 25° C. and were terminated by the addition of 4 ml of ice-cold 50 mM TRIS-HCl, followed by rapid filtration through Whatman GF/B filters and three additional 4 ml washes in a cell harvester (Brandel). Competition studies were performed using a final concentration of 5 nM [^3H]-PGE2, or 5 nM [^3H] 17-phenyl PGF2, and non-specific binding determined with 10^−5M of unlabeled PGE2, or 17-phenyl PGF2α, according to receptor subtype studied.

hEP4 [3] = molecular target: T2, hEP4 (Homo sapiens, UniProt P35408); test: FLIPR calcium signal, hEP4; format: cell-based; parameters: expressed in transfected cells; host or cells: HEK-293(EBNA); details: HEK-293(EBNA) cells expressing hEP4/Gqs5
T2 sequence (P35408 whole entry): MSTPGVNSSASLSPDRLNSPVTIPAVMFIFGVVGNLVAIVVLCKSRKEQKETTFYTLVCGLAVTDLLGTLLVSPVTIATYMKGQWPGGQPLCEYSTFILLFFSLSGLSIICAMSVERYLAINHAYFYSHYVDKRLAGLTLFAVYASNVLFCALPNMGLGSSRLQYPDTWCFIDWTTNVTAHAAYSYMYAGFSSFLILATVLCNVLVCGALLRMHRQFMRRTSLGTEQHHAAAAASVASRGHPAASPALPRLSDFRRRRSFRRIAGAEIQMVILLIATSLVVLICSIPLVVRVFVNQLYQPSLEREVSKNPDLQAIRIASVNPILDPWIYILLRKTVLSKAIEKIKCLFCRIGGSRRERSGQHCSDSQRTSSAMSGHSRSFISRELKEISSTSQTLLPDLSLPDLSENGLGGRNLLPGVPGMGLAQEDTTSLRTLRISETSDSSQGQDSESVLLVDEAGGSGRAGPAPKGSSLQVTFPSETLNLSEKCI
Experimental: as §1, §2, §3, §4, §5

hEP4 [4] = molecular target: T2, hEP4; test: Radioligand binding, EP4 receptor; parameters: expressed in transfected cells; host or cells: HEK-293; details: [3H]PGE2, HEK-293 cells expressing EP4
Experimental: as §6, §7, §8

hEP2 [5] = molecular target: T1, hEP2; test: cAMP assay, hEP2; format: cell-based

T1 sequence (P43116 whole entry): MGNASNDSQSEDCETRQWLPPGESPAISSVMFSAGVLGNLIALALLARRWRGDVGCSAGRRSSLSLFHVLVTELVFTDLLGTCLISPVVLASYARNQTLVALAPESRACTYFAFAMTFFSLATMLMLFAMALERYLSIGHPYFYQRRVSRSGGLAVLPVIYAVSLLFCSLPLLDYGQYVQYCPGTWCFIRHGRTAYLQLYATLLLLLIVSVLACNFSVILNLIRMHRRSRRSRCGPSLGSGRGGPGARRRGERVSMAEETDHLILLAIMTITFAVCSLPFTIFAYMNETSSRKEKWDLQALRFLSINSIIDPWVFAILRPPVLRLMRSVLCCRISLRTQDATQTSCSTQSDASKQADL

Structure (SMILES) | EC50 (hEP2 [1]) | Ki (hEP2 [2]) | EC50 (hEP4 [3]) | Ki (hEP4 [4]) | EC50 (hEP2 [5])
O=C(O)CCCCCC[C@@H]1[C@@H](COc2cccc3ccccc23)[C@H](O)C[C@H]1Cl [Example 20, (Z)-7-[(1R,2S,3R,5R)-5-Chloro-3-hydroxy-2-(naphthalen-1-yloxymethyl)-cyclopentyl]-heptanoic acid] | 82 nM | 163 nM | 2.74 µM | 351 nM | 28 nM
CC(C)c1cccc(OC[C@@H]2[C@@H](C/C=C\CCCC(=O)O)[C@H](Cl)C[C@H]2O)c1 [Example 26, (Z)-7-[(1R,2S,3R,5R)-5-Chloro-3-hydroxy-2-(3-isopropyl-phenoxymethyl)-cyclopentyl]-hept-5-enoic acid] | 41 nM | 151 nM | 6.5 µM | 967 nM | 7 nM
O=C(O)CCCCCC[C@@H]1[C@@H](COc2cc(C(F)(F)F)cc(C(F)(F)F)c2)[C@H](O)C[C@H]1Cl [Example 16, (Z)-7-[(1R,2S,3R,5R)-2-(3,5-Bis-trifluoromethyl-phenoxymethyl)-5-chloro-3-hydroxy-cyclopentyl]-heptanoic acid] | 100 nM | 45 nM | 13.1 µM | 4110 nM | 40 nM
O=C(O)CCC/C=C\C[C@@H]1[C@@H](COc2ccccc2CO)[C@H](O)C[C@H]1Cl [Example 55, (Z)-7-[(1R,2S,3R,5R)-5-Chloro-3-hydroxy-2-(2-hydroxymethyl-phenoxymethyl)-cyclopentyl]-hept-5-enoic acid] | 9490 nM | 4120 nM | 12.3 µM | 1520 nM | 225 nM
O=C(O)CCC/C=C\C[C@@H]1[C@@H](COc2cc(C(F)(F)F)cc(Cl)c2F)[C@H](O)C[C@H]1Cl [Example 41, (Z)-7-[(1R,2S,3R,5R)-5-Chloro-2-(3-chloro-2-fluoro-5-trifluoromethyl-phenoxymethyl)-3-hydroxy-cyclopentyl]-hept-5-enoic acid] | 13 nM | 16 nM | > 10 µM | 1710 nM | 1.3 nM
O=C(O)CCC/C=C\C[C@@H]1[C@@H](COc2cccc(O)c2)[C@H](O)C[C@H]1Cl [Example 30, (Z)-7-[(1R,2S,3R,5R)-5-Chloro-3-hydroxy-2-(3-hydroxy-phenoxymethyl)-cyclopentyl]-hept-5-enoic acid] | 111 nM | 603 nM | 1.17 µM | 5060 nM | 24 nM
CC(=O)OCc1cc(Cl)cc(OC[C@@H]2[C@@H](C/C=C\CCCC(=O)O)[C@H](Cl)C[C@H]2O)c1 [Example 64, (Z)-7-[(1R,2S,3R,5R)-2-(3-Acetoxymethyl-5-chloro-phenoxymethyl)-5-chloro-3-hydroxy-cyclopentyl]-hept-5-enoic acid] | 1110 nM | 65 nM | 7.45 µM | 381 nM | 6.5 nM
COc1cccc(OC[C@@H]2[C@@H](C/C=C\CCCC(=O)O)[C@H](Cl)C[C@H]2O)c1 [Example 28, (Z)-7-[(1R,2S,3R,5R)-5-Chloro-3-hydroxy-2-(3-methoxy-phenoxymethyl)-cyclopentyl]-hept-5-enoic acid] | 245 nM | 274 nM | 3.72 µM | 1680 nM | 20 nM
O=C(O)CCC/C=C\C[C@@H]1[C@@H](COc2ccc(Cl)cc2)[C@H](O)C[C@H]1Cl [Example 23, (Z)-7-[(1R,2S,3R,5R)-5-Chloro-2-(4-chloro-phenoxymethyl)-3-hydroxy-cyclopentyl]-hept-5-enoic acid] | 45 nM | 32 nM | 2.86 µM | 3220 nM | 10 nM
O=C(O)CCC/C=C\C[C@@H]1[C@@H](COc2cccc(Cl)c2)[C@H](O)C[C@H]1Cl [Example 22, (Z)-7-[(1R,2S,3R,5R)-5-Chloro-2-(3-chloro-phenoxymethyl)-3-hydroxy-cyclopentyl]-hept-5-enoic acid] | 18 nM | 43 nM | 0.823 µM | > 10000 nM | 5 nM
O=C(O)CCC/C=C\C[C@@H]1[C@@H](COc2ccc(CCO)cc2)[C@H](O)C[C@H]1Cl [Example 63, (Z)-7-{(1R,2S,3R,5R)-5-Chloro-3-hydroxy-2-[4-(2-hydroxy-ethyl)-phenoxymethyl]-cyclopentyl}-hept-5-enoic acid] | > 10000 nM | 1990 nM | > 10 µM | – | –
O=C(O)CCC/C=C\C[C@@H]1[C@@H](COc2cccc(CCO)c2)[C@H](O)C[C@H]1Cl [Example 62, (Z)-7-{(1R,2S,3R,5R)-5-Chloro-3-hydroxy-2-[3-(2-hydroxy-ethyl)-phenoxymethyl]-cyclopentyl}-hept-5-enoic acid] | 1970 nM | 161 nM | > 10 µM | – | 18 nM
Cc1ccc(OC[C@@H]2[C@@H](C/C=C\CCCC(=O)O)[C@H](Cl)C[C@H]2O)c(C)c1 [Example 33, (Z)-7-[(1R,2S,3R,5R)-5-Chloro-2-(2,4-dimethyl-phenoxymethyl)-3-hydroxy-cyclopentyl]-hept-5-enoic acid] | 277 nM | 620 nM | 7.25 µM | – | 72 nM
O=C(O)CCC/C=C\C[C@@H]1[C@@H](COc2ccccc2CCO)[C@H](O)C[C@H]1Cl [Example 61, (Z)-7-{(1R,2S,3R,5R)-5-Chloro-3-hydroxy-2-[2-(2-hydroxy-ethyl)-phenoxymethyl]-cyclopentyl}-hept-5-enoic acid] | 5980 nM | 3910 nM | > 10 µM | – | 128 nM
